Results as given in PMC8434884 (Journal of medicinal chemistry, 2020).

Assays:
[1] = target: T1, human 5-HT2CR (unedited INI isoform) (Homo sapiens, UniProt P28335); conditions: 1 nM, 5-HT-induced Cai2+ release, h5-HT2CR-CHO cells
T1 sequence (P28335 33-458): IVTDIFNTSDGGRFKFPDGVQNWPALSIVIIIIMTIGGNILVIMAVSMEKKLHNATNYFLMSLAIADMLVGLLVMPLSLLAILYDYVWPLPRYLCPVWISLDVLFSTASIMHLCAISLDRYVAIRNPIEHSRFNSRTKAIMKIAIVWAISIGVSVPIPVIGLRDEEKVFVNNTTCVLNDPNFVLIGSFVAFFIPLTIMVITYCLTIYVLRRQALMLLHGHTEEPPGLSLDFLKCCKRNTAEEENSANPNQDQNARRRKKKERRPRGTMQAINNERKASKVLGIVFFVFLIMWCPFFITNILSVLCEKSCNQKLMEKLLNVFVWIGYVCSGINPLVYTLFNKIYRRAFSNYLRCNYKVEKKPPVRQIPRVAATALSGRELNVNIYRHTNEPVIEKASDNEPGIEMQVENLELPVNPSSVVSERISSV

[2] = target: T1, human 5-HT2CR (unedited INI isoform); conditions: cited from earlier work
rats [3] = conditions: cited from earlier work
α 2A = target: T2, α 2A (Homo sapiens, UniProt P08913); conditions: 10 μM; cited from earlier work
T2 sequence (P08913 1-465): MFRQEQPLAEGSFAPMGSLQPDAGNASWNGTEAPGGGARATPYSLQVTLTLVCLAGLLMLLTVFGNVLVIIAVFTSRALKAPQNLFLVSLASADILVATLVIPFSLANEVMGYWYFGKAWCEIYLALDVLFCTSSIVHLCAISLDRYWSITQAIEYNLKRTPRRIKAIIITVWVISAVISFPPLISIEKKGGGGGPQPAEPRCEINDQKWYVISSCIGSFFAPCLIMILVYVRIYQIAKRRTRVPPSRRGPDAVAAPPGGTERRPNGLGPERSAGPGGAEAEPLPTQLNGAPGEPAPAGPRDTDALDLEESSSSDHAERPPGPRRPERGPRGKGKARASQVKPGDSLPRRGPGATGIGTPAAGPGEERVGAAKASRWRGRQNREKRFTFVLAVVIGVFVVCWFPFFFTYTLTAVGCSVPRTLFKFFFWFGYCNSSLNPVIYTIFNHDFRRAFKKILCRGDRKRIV

D3 = D3 (Homo sapiens, UniProt P35462); conditions: 10 μM; cited from earlier work
D3, sequence (P35462 whole entry): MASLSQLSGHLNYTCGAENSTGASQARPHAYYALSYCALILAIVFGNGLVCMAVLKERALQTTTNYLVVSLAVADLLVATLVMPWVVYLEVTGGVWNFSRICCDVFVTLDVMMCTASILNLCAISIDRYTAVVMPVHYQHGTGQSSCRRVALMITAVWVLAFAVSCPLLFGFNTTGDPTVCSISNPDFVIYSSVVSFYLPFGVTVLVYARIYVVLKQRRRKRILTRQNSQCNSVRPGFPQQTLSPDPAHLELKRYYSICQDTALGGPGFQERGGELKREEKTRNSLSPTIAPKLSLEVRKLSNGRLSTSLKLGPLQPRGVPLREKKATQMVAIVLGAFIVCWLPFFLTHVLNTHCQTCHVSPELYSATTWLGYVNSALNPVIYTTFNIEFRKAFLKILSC

α 2B = target: T3, α 2B (Homo sapiens, UniProt P18089); conditions: 10 μM; cited from earlier work
T3 sequence (P18089 1-450): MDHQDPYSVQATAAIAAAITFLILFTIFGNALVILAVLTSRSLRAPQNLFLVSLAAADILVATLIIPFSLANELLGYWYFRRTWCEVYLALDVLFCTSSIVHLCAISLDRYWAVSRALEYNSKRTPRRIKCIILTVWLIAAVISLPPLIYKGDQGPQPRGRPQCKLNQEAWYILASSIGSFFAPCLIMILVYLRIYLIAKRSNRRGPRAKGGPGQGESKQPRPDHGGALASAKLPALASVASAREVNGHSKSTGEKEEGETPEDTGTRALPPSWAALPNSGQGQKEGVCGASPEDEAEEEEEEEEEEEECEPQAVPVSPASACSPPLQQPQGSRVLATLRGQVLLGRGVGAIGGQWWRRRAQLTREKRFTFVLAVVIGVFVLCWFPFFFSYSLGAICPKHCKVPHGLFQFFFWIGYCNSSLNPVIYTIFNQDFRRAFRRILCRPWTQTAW

rats [4] = conditions: cited from earlier work; remark: listed apart in the source
DAT = DAT (Homo sapiens, UniProt Q01959); conditions: 10 μM; cited from earlier work
DAT, sequence (Q01959 whole entry): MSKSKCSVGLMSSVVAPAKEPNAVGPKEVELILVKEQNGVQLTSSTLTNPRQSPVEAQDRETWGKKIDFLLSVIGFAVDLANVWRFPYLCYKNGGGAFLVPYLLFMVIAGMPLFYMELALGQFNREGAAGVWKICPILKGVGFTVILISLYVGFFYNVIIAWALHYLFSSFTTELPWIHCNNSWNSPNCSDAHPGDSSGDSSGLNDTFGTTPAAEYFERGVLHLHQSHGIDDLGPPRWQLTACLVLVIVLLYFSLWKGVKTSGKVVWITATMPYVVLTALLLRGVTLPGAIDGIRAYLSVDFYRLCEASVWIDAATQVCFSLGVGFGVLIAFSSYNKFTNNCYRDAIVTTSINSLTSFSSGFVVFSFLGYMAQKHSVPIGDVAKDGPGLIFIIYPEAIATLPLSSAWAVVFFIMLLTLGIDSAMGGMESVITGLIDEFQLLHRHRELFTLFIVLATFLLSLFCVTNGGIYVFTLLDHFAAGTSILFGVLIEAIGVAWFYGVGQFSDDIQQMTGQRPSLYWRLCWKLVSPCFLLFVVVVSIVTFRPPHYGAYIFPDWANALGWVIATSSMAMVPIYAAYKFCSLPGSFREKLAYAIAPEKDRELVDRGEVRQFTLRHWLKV

male Sprague–Dawley rats [5] = assay: WAY163909 versus saline two-lever drug discrimination assay; assay type: in vivo, rat
male Sprague–Dawley rats [6] = conditions: previous study; cited from earlier work

With O=C(NC(CO)CO)[C@@H]1C[C@H](c2ccccc2)CCN1 (racemic) [Compound 14, (2,4-cis)-N-(1,3-Dihydroxypropan-2-yl)-4-phenylpiperidine-2-carboxamide] the “5-HT2CR positive allosteric modulator activity (in words)” value [1] was “did promote PAM activity”.
With O=C(NC(CO)CO)[C@@H]1C[C@H](C2CCCCC2)CCN1 (racemic) [Compound 15, (2,4-cis)-4-Cyclohexyl-N-(1,3-dihydroxypropan-2-yl)piperidine-2-carboxamide] the “5-HT2CR positive allosteric modulator activity (in words)” value [1] was “did not result in positive allosteric effects”.
For O=C(NCCN1CCOCC1)[C@@H]1C[C@H](c2ccccc2)CCN1 (racemic) [Compound 16, (2,4-cis)-N-(2-Morpholinoethyl)-4-phenylpiperidine-2-carboxamide], the “5-HT2CR positive allosteric modulator activity (in words)” value [1] was “did not result in positive allosteric effects”.
For O=C(NCCN1CCOCC1)[C@@H]1C[C@H](C2CCCCC2)CCN1 (racemic) [Compound 17, (2,4-cis)-4-Cyclohexyl-N-(2-morpholinoethyl)piperidine-2-carboxamide], the “5-HT2CR positive allosteric modulator activity (in words)” value [1] was “did not result in positive allosteric effects”.
In the case of O=C(NCCN1CCOCC1)[C@@H]1C[C@H](CCC2CCCCC2)CCN1 (racemic) [Compound 34, (2,4-cis)-4-(2-Cyclohexylethyl)-N-(2-morpholinoethyl)piperidine-2-carboxamide], the “5-HT2CR positive allosteric modulator activity (in words)” value [1] is reported as “did not produce PAM effects”.
With O=C(NCCCN1CCOCC1)[C@@H]1C[C@H](CCC2CCCCC2)CCN1 (racemic) [Compound 35, (2,4-cis)-4-(2-Cyclohexylethyl)-N-(3-morpholinopropyl)-piperidine-2-carboxamide] the “5-HT2CR positive allosteric modulator activity (in words)” value [1] was “did produce PAM effects”.
For O=C(NCCN1CCOCC1)[C@@H]1C[C@H](CCc2ccccc2)CCN1 (racemic) [Compound 36, (2,4-cis)-N-(2-Morpholinoethyl)-4-phenethylpiperidine-2-carboxamide], the “5-HT2CR positive allosteric modulator activity (in words)” value [1] was “did not produce PAM effects”.
In the case of O=C(NCCCN1CCOCC1)[C@@H]1C[C@H](CCc2ccccc2)CCN1 (racemic) [Compound 37, (2,4-cis)-N-(3-Morpholinopropyl)-4-phenethylpiperidine-2-carboxamide], the “5-HT2CR positive allosteric modulator activity (in words)” value [1] is reported as “did produce PAM effects”.
For O=C(NC(CO)C(O)c1ccccc1)C1C[C@@H](c2ccccc2)CCN1 (stereo in doubt) [Compound (2R,4S)-11, (2S,4S)-N-((1S,2S)-1,3-Dihydroxy-1-phenylpropan-2-yl)-4-phenylpiperidine-2-carboxamide], the “5-HT2CR positive allosteric modulator activity (in words)” value [1] was “modest allosteric activity”.
In the case of CCCCCCCCCCC[C@@H]1CCN[C@H](C(=O)N[C@@H]([C@H]2O[C@H](SC)[C@H](O)[C@@H](O)[C@H]2O)[C@H](C)Cl)C1.Cl [Compound 1], the “shift of the 5-HT-evoked Cai2+ response curve” value ([2]; titration studies) is listed as “evoked a leftward shift”.
In the case of CCCCCCCCCCC[C@@H]1CCN[C@H](C(=O)NCC(O)CO)C1 (stereo partly drawn) [Compound 3], the “effect on cocaine-seeking during abstinence from cocaine self-administration” value (rats [3]) is listed as “suppress cocaine-seeking”, the “inhibition of radioligand binding” value (α 2A) is listed as 85.1% and the “inhibition of radioligand binding” value (D3) is listed as 71.7%. The “Emax RFU (% 5-HT)” value ([2]; compound 1 nM, 5-HT-induced Cai2+ release, h5-HT2CR-CHO cells) was 123.2 ± 4.1 % 5-HT, the “effect on Cai2+ release in the absence of 5-HT” value ([2]; h5-HT2CR-CHO cells) was “no effect on Cai^2+ release” and the “inhibition of radioligand binding” value (α 2B) was 80.7%. The “effect on locomotor activity” value (rats [4]) was “decrease locomotor activity” and the “inhibition of radioligand binding” value (DAT) was 66.3%.
For Cc1cc2c(cc1Cl)N(C(=O)Nc1ccc(Oc3cccnc3C)nc1)CC2.Cl.Cl [SB242084, 6-chloro-5-methyl-1-[[2-(2-methylpyrid-3-yloxy)pyrid-5-yl]carbamoyl]indoline dihydrochloride, reference compound], the “blockade of substitution of 12 (2 mg/kg) plus WAY163909 (0.5 mg/kg)” value (male Sprague–Dawley rats [5]; SB242084 0.5 mg/kg pretreatment, 13/13 rats) was “completely prevented the substitution”.
In the case of c1cc2c3c(c1)[C@H]1CCC[C@H]1N3CCNC2 [WAY163909, (7b-R,10a-R)-1,2,3,4,8,9,10,10a-octahydro-7bH-cyclopenta[b][1,4] diazepino[6,7,1hi]indole, reference compound], the “percentage of rats selecting the WAY163909-associated lever” value (male Sprague–Dawley rats [5]; WAY163909 0.125 mg/kg ip, substitution test, n = 13) is given as 0% and the “dose predicted to result in 50% drug-associated responses (ED50)” value (male Sprague–Dawley rats [6]) is given as 0.53 mg/kg.
